Among the data in ChEMBL document CHEMBL1153190, “Novel neofusapyrones isolated from Verticillium dahliae as potent antifungal substances” (Bioorg Med Chem Lett, 2010) are Activity values, retold here.

The test system of series [1] is HeLa. The series can be described thus: Cytotoxicity against human HeLa cells. It counts as cell-based.
In series [2] the test system is HepG2. The series can be described thus: Cytotoxicity against human HepG2 cells. Format: cell-based.
The test system of series [3] is Bipolaris oryzae. The series can be described thus: Antifungal activity against Cochliobolus miyabeanus at 100 ng/ml. It counts as functional, organism-based.
Series [4] deals with Staphylococcus aureus. Put plainly: Antibacterial activity against methicillin-resistant Staphylococcus aureus Isolate 87-7927 at 10 ug. Format: functional, organism-based.

Calls of active or inactive are those of the source. The rule behind the calls is not given here.

Turning to `CCCCCCC(C)C/C(C)=C\C(C)/C=C(C)/C=C/C(O)C(C)c1cc(O)c([C@@H]2O[C@H](CO)C[C@H](O)[C@H]2O)c(=O)o1` (some centres not stated), the Activity entry in series [1] and in series [2] was “Non-toxic” each time. For the same compound, in series [3], the result was Active.
Take `CCCCCCC(C)C/C(C)=C\C(C)/C=C(C)/C=C/C(O)C(C)(C)c1cc(O)c([C@@H]2O[C@H](CO)C[C@H](O)[C@H]2O)c(=O)o1` (some centres not stated) [DEOXYNEOFUSAPYRONE]: the Activity entry in series [1] and in series [2] was “Non-toxic” in each case. The outcome in series [4] and in series [3] was Active.
